The values that follow come from patent publication US10449146B2, “Methods of treating parkinson's disease by administration of apomorphine to an oral mucosa” (Sunovion Pharmaceuticals Inc., priority 2015, dated 2019).

The conditions of data set [1]: intravenous infusion, subjects having Parkinson's disease; cited from earlier work.
The nature of data set [2]: Plasma apomorphine concentration in Parkinson's patients, minimum effective concentration. Format: in vivo, human. Here is the method:
A range of doses was used. Over half of the patients needed only the lower two doses (Films J and K), and 80% used Film I, J, or K (FIG. 8; “apomorphine dose” in this Figure indicates the weight of apomorphine hydrochloride in the administered pharmaceutical unit dosage form). […] Eight patients had pharmacokinetic analyses; six of these eight patients have achieved “on” state. Mean plasma apomorphine concentration upon turning on was 2.64 ng/mL for the six patients. […] Responders had large, clinically meaningful UPDRS Part III changes (motor improvement) at all time-points while the non-responders had little motor improvement but not enough to convert from OFF to ON (FIG. 9B).

Structures are written as SMILES. Where two headings read alike, the source gives them in different places.

In the case of `CN1CCc2cccc3c2[C@H]1Cc1ccc(O)c(O)c1-3` [apomorphine], the minimum effective concentration in data set [1] is on record as 4.7 ng/mL; in data set [2] (administered to oral mucosa) it was “about 2.64 ng/mL”. Besides, in data set [2] (six patients who achieved 'on' state, film to oral mucosa), the “Mean plasma apomorphine concentration upon turning on” value is recorded as 2.64 ng/mL. In addition, the “average plasma apomorphine concentration” value in data set [2] (two non-responders, all doses, each time point) is reported as less than 2.64 ng/mL.
